Measurements as given in ChEMBL document CHEMBL1135073, “Solution and solid-phase synthesis of potent inhibitors of hepatitis C virus NS3 proteinase” (Bioorg Med Chem Lett, 2002).
*1 amine or outer side, *2 acyl side, *3 side chain or, on linkers, in order; H or OH if unused. Where a SMILES comes first, the peptide text is derived from it. [ ]: non-standard residue; d: D form. The star is where a group is joined. Nleψ(COCO) = CCCC[C@H](N[*:1])C(=O)C(=O)[*:2]; Acetyl(2-naphthyl) = O=C(Cc1ccc2ccccc2c1)*; NH(1S-phenylpropyl) = CC[C@H](N*)c1ccccc1; Phe(2-Me) = Cc1ccccc1C[C@H](N)C(=O)O; NleCONH2 = CCCC[C@H](N*)C(=O)C(N)=O; 3Thi = N[C@@H](Cc1ccsc1)C(=O)O; Phg = N[C@H](C(=O)O)c1ccccc1; Suc = O=C(CCC(=O)[*:2])[*:1]; Tle = CC(C)(C)[C@H](N)C(=O)O; Bn = c1ccc(C*)cc1

molecular target: NS3 (Hepatitis C virus, UniProt A3EZJ3); assay: Inhibitory concentration against Hepatitis C virus NS3 proteinase; set-up: species or system Hepacivirus hominis
Sequence (A3EZJ3 whole entry): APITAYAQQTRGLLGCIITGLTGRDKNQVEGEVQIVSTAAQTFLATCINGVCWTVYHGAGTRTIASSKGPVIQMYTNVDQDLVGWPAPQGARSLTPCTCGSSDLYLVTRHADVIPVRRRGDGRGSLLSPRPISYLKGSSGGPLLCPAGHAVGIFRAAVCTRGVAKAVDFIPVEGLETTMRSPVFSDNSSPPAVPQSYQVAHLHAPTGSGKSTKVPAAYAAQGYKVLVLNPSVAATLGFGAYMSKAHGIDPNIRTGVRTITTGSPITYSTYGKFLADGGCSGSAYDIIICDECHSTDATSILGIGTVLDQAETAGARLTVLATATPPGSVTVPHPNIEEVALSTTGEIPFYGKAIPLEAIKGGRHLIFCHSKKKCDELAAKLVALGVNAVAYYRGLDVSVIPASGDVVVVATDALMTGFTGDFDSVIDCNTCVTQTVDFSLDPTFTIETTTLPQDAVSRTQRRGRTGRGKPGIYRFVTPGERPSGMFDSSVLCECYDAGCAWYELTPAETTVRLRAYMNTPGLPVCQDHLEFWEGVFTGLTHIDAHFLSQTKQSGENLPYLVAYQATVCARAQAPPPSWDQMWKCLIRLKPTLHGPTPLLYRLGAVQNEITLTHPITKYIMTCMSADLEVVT

Compound | IC50 [nM]
CCCC[C@H](NC(=O)[C@H](CC(C)C)NC(=O)[C@@H](NC(=O)[C@H](Cc1ccc(OCc2ccccc2)cc1)NC(=O)[C@H](CCC(=O)O)NC(=O)[C@H](CC(=O)O)NC(=O)CCC(=O)O)C(C)(C)C)C(=O)C(N)=O (Suc-DEY(Bn)[Tle]L-NleCONH2) | 110
CCCC[C@H](NC(=O)[C@H](CC(C)C)NC(=O)[C@@H](NC(=O)[C@H](Cc1ccccc1C)NC(=O)[C@H](CCC(=O)O)NC(=O)[C@H](CC(=O)O)NC(=O)CCC(=O)O)c1ccccc1)C(=O)C(N)=O (Suc-DE[Phe(2-Me)][Phg]L-NleCONH2) | 42
CCCC[C@H](NC(=O)[C@H](Cc1ccsc1)NC(=O)[C@@H](NC(=O)[C@H](Cc1ccccc1C)NC(=O)[C@H](CCC(=O)O)NC(=O)[C@H](CC(=O)O)NC(=O)CCC(=O)O)C(C)(C)C)C(=O)C(N)=O (Suc-DE[Phe(2-Me)][Tle][3Thi]-NleCONH2) | 130
CCCC[C@H](NC(=O)[C@H](CC(C)C)NC(=O)[C@@H](NC(=O)[C@H](Cc1ccccc1C)NC(=O)[C@H](CCC(=O)O)NC(=O)[C@H](CC(=O)O)NC(=O)Cc1ccc2ccccc2c1)C(C)(C)C)C(=O)C(N)=O ({Acetyl(2-naphthyl)}-DE[Phe(2-Me)][Tle]L-NleCONH2) | 90

Further compounds by falling IC50, results first:

IC50 [nM] | Compound
41 | CCCC[C@H](NC(=O)[C@H](CC(C)C)NC(=O)[C@@H](NC(=O)[C@H](Cc1ccccc1C)NC(=O)[C@H](CCC(=O)O)NC(=O)[C@H](Cc1c[nH]c2ccccc12)NC(=O)CCC(=O)O)C(C)(C)C)C(=O)C(N)=O (Suc-WE[Phe(2-Me)][Tle]L-NleCONH2)
29 | CCCC[C@H](NC(=O)[C@H](CC(C)C)NC(=O)[C@@H](NC(=O)[C@H](Cc1ccccc1C)NC(=O)[C@H](COCc1ccccc1)NC(=O)[C@H](CC(=O)O)NC(=O)CCC(=O)O)C(C)(C)C)C(=O)C(N)=O (Suc-DS(Bn)[Phe(2-Me)][Tle]L-NleCONH2)
20 | CCCC[C@H](NC(=O)[C@H](CC(C)C)NC(=O)[C@@H](NC(=O)[C@H](Cc1ccccc1C)NC(=O)[C@@H](NC(=O)[C@H](CC(=O)O)NC(=O)CCC(=O)O)C(C)C)C(C)(C)C)C(=O)C(N)=O (Suc-DV[Phe(2-Me)][Tle]L-NleCONH2)
11 | CCCC[C@H](NC(=O)[C@H](CC(C)C)NC(=O)[C@@H](NC(=O)[C@H](Cc1ccccc1C)NC(=O)[C@H](CCC(=O)O)NC(=O)[C@H](CC(=O)O)NC(=O)CCC(=O)O)C(C)(C)C)C(=O)C(=O)N[C@@H](CC)c1ccccc1 (Suc-DE[Phe(2-Me)][Tle]L[Nleψ(COCO)]-{NH(1S-phenylpropyl)})
